# Laboratory results from US7270968B2, “PTH analogs for renal osteodystrophy and related uses” (The General Hospital Corporation, priority 2000, dated 2007).
# pEC50, pIC50: −log10 of the molar value. Where two headings read alike, the source gives them in different places.
# What was measured:
# [1] = test system: CPTHR; assay: Competitive displacement of 125I-[Tyr34]hPTH(19-84) radioligand in C59 (OC59) cells; assay type: binding, mouse; conditions: for Binding to the CPTHR: Example 2, either alone or in combination
# Experimental: The human PTH peptides shown were tested for their ability to displace the ^125I-[Tyr^34]hPTH(19-84) tracer in C59 cells. Experiments were performed as described in FIG. 1. Results are expressed as the percentage of maximal specific binding observed in the absence of competing ligand and are shown as mean±standard deviation of triplicates in this representative experiment.
# OC59 cells were incubated at 15° C. for 4 hr with ^125I[Tyr^34]hPTH(19-84) tracer (150,000 cpn/well) plus the indicated competing human PTH peptides. Results are means of triplicates.
# The [Tyr^34]hPTH(19-84) peptide was radioiodinated with Na[^125I](2000 Ci/mmol) by the chloramine-T method and purified by HPLC, as previously described (Inomata, N., et al., Endocrinology 136:4732-4740 (1995)). For binding experiments, cells (100,000 cells/ml) were plated in 24-well dishes and cultured at 33° C. for 7 to 14 days. Confluent monolayers then were washed with 0.5 ml binding buffer [100 mM NaCl, 5 mM KCl, 2 mM CaCl2, 50 mM Tris-HCl (pH 7.8) plus 5% heat-inactivated horse serum] before incubation with ^125I-[Tyr^34]hPTH-(19-84) (100,000-200,000 cpm/well) in 0.5 ml binding buffer for 4 h at 15° C. Receptor number was ascertained by Scatchard analysis, using [Tyr^34]hPTH-(19-84) or hPTH(1-84) as competing ligand. […] In some experiments, cells were washed with acidic buffer (50 mM glycine, 150 mM NaCl, pH 4.0) to remove residual bound ligand, prior to addition of radioligand.
# [2] = test system: Gs-linked PTH receptors; conditions: F1 cells and osteoblastic subclones; cited from earlier work
# [3] = test system: CPTHR; assay: Downregulation of CPTHR binding in C59 cells after pretreatment; assay type: cell-based, mouse; conditions: for Downregulation of CPTHR binding: exposure 24 hr; for Radioligand binding, % of controls after drug removal: 24 h after removal; for Reduction of specific binding / Reduction of specific 125I-[Tyr34]hPTH(19-84) binding: preincubation 16 h
# Experimental: Specific binding, is expressed as mean ± standard deviation of triplicates. * p<0.05, ** P<0.01.
# For binding experiments, cells (100,000 cells/ml) were plated in 24-well dishes and cultured at 33° C. for 7 to 14 days. […] Receptor number was ascertained by Scatchard analysis, using [Tyr^34]hPTH-(19-84) or hPTH(1-84) as competing ligand. […] In some experiments, cells were washed with acidic buffer (50 mM glycine, 150 mM NaCl, pH 4.0) to remove residual bound ligand, prior to addition of radioligand.
# (1 mM), forskolin (10 μM), insulin (100 ng/mL), IGF-1 ([…]) or dexamethasone (100 nM).
# [4] = target: T1, PTH1R (Homo sapiens, UniProt Q03431); conditions: cited from earlier work
# T1 sequence (Q03431 27-593): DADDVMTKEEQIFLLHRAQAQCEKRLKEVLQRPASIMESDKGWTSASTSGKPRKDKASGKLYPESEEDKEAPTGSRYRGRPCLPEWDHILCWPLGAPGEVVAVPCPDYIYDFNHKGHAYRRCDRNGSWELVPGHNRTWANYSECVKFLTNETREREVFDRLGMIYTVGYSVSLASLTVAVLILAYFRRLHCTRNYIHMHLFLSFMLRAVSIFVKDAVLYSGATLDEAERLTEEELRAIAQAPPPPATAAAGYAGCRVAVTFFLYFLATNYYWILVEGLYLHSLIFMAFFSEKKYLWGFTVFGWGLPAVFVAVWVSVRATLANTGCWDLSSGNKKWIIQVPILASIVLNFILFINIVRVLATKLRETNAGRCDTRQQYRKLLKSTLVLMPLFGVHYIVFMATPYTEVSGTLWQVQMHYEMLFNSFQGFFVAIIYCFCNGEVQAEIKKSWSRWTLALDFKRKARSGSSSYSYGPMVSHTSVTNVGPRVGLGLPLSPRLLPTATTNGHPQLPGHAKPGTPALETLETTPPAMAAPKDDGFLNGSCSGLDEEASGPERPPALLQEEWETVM
# [5] = test system: Gs-linked PTH receptors; assay: Cyclic AMP accumulation in C cells (OC1, OC14, OC59); assay type: cell-based, mouse; conditions: three C cells
# Experimental: The buffer then was rapidly aspirated, the plates were frozen in liquid nitrogen, and the frozen cells were subsequently thawed directly into 0.5 ml of 50 mM HCl. Cell-associated cAMP in the acid extracts was measured using an RIΛ kit (NUN Life Science Products, Boston, Mass., U.S.A.). Results were expressed as picomoles of cAMP produced per well over 15 min.
# [6] = test system: OC14 cells; assay: Apoptosis by TUNEL assay in OC cells; assay type: cell-based, mouse; conditions: 100 nM, 6 hr
# Experimental: (§1) Cells plated on glass coverslips and maintained at 33° C. for 33 days were shifted to 39° C. for 5-7 days before addition of 100 nM hPTH(1-84) (B, D) or vehicle alone (A, C) for 6 hr. At the end of the incubations, cells were fixed and stained with Hoechst 33258 (A and B) or for TUNEL (C and D) (see Example 1). Arrows indicate apoptotic cells. 200× magnification.
# (§2) The pyknotic fragmentation of nuclei typical of apoptotic cells was detected using Hoechst-33258 fluorescent dye (Sigma Co., St. Louis, Mo., U.S.A.). Briefly, cells were cultured on glass coverslips and maintained in culture at nonpermissive conditions for 4-6 days in (α-MEM supplemented with 2-5% of FBS and 1% PS. After exposure to the test hormones for 6 hr, culture medium was aspirated and cells were fixed in 4% paraformaldehyde in phosphate buffered solution and then stained with Hoechst-33258 ([…]) for 5 min at room temperature. Cells were washed and mounted with glycerol-PBS (9:1, v/v). The stained nuclei were visualized by fluorescence microscopy using DAPI filter. In some experiments, apoptotic cells were detected by the terminal deoxynucleotidyl transferase-mediated nick end labeling (TUNEL) reaction, using the In Situ Cell Death Detection Kit from Roche Molecular Biochemicals (Indianapolis, Ind., U.S.A.) following the manufacturer's instruction.
# [7] = test system: OC14 cells; assay: Cell death by trypan blue staining in OC14 cells; assay type: cell-based, mouse
# Experimental: OC14 cells were plated, cultured at 33° C. for 3 days and then incubated at 39° C. for 5-7 days before addition of PTH peptides for a further 16 hr, followed by trypan blue staining (see Example 1). A) Human PTH 1-84 dose response, B) Response to hPTH(1-84), 100 nM and hPTH(39-84), 1000 nM, C) Response to [Tyr^34]hPTH(24-84), 100 nM, D) Caspase dependance (“C”=controls) The Caspase-3 inhibitor DEVD (“D”) was added 1 hr prior to addition of 100 nM hPTH(1-84) (“P”). Results are expressed as mean±SD of quadruplicate determinations of the percentage of nonvital trypan blue-stained cells. * p<0.05, ** p<0.01.
# Briefly, cells were plated at 50,000 cells/well in 24-well dishes at 33° C. and shifted to nonpermissive conditions (39° C.) after 2 days. Cells were grown at 39° C. for an additional 4-6 days in α-MEM supplemented with 2.5% of FBS and 1% PS and then treated with different hormones for additional 16-18 hr. Non-adherent cells were combined with adherent cells that were released from the cultures with trypsin-EDTA, centrifuged and resuspended in 0.1% trypan blue solution.
# [8] = test system: C×43 expression; assay: Connexin 43 immunocytochemical staining in OC cells; assay type: cell-based, mouse; conditions: 100 nM, 2 hr
# Experimental: OC14 cells were plated on glass coverslips at 72,000 cells/cm^2, cultured at 33° C. for 2 days and then shifted at 39° C. for 3-5 days before stimulation with CPTHR ligands. OC14 cells were treated for 2 hr with (A) vehicle alone, (B) 100 nM hPTH(1-84) or (C) 1000 nm hPTH(39-84). Cells were fixed and stained for C×43 expression as described (see Example 1).
# For Immunocytochemical analysis, cells were plated on glass chamber slides at 72,000 cells/cm^2, cultured for two days at 33° C. and then shifted for an additional 4-6 days at 39° C. Cells were treated with vehicle alone (0.1% TFA) or with the appropriate hormone for the time indicated. The immunocytochemical staining was performed as previously described (Kato, Y., et al., J. Bone Miner. Res. 12:2014-2023 (1997)). Briefly, cells were fixed in 3% paraformaldehyde/2% sucrose in PBS and permeabilized for 5 min. with 0.05% Triton-X 100 diluted in PBS. The fixed slides were blocked in 5% BSA in TBS-T buffer for 2 h at room temperature. The cells then were incubated with a 1:125 dilution of anti-C×43 monoclonal antibody for 30 min at room temperature. The bound antibody was detected using a Vectastain ABC kit, followed by staining with VIP substrate according to manufacturer's instructions (Vector Laboratories, Burlingame, Calif.). Counter staining was performed using 0.5% methyl green. […]
# [9] = test system: OC14 cells; assay: Apoptosis by Hoechst 33258 DNA staining in OC cells; assay type: cell-based, mouse; conditions: 100 nM, 6 hr
# Experimental: as §1, §2
molecule,measurement,setting,value
"hPTH(20-30): Short synthetic human PTH peptide spanning residues 20-30 (RVEWLRKKLQD; Parathyroid hormone; UniProt P01270 51-61, looked up, fragment)",Binding to the CPTHR,[1],failed to bind
hPTHrP(1-36): Human PTH-related peptide fragment 1-36,cAMP response,[2],no detectable cAMP response
insulin: insulin,Downregulation of CPTHR binding,[3]; 100 ng/mL,No downregulation
C[C@H](CCC(=O)O)C[C@H](C)C[C@H](C)C(=O)/C=C(\O)[C@H](C)C[C@H](C)C/C=C/[C@@H](C)[C@@H](O)[C@@H](C)[C@@H](O)C[C@@H]1CC[C@@](C)([C@H]2CC[C@@](C)([C@@H](C)O)O2)O1 [ionomycin],"Radioligand binding, % of controls after drug removal",[3],100%
same,Reduction of specific binding,[3]; 1 μM,71±3%
"PTH(53-84): Carboxyl fragment 53-84 of intact PTH (KKEDNVLVESHEKSLGEADKADVNVLTKAKSQ; Parathyroid hormone; UniProt P01270 84-115, looked up, fragment)",Binding and activation of the PTH1R,[4],neither bind nor activate
"hPTH(24-54): Short synthetic human PTH peptide spanning both binding domains 24-27 and 53-54 (LRKKLQDVHNFVALGAPLAPRDAGSQRPRKK; Parathyroid hormone; UniProt P01270 55-85, looked up, fragment)",pEC50,"[1]; Example 2, PTH1R-null CPTHR-expressing calvarial-derived clonal cells, read-out: apparent EC50, competition of [Tyr34]125I-hPTH(19-84) tracer",4.70
"hPTH(50-60): Short synthetic human PTH peptide spanning residues 50-60 (RPRKKEDNVLV; Parathyroid hormone; UniProt P01270 81-91, looked up, fragment)",Binding to the CPTHR,[1],failed to bind
"hPTH(1-84): Recombinant human parathyroid hormone (1-84), the intact hormone",cAMP response,[2],no detectable cAMP response
same,cAMP response,[5],absence of a detectable cAMP response
same,"Apoptosis, TUNEL immunocytochemical assay",[6],Increased apoptosis
same,Concentration of maximal effect upon cell death,"[7]; 16 hr, trypan blue",10 nM
same,pEC50,"[7]; 16 hr, trypan blue, read-out: EC50, effect upon cell death",~10.00
same,Change in trypan blue-stained cells,[7]; after 16 hr,doubling
same,Reduction of specific 125I-[Tyr34]hPTH(19-84) binding,[3]; 200 nM,19±5%
same,Reduction of specific 125I-[Tyr34]hPTH(19-84) binding,[3]; 1000 nM,66±7%
same,Expression of C×43 by immunostaining,[8],increased the expression of C×43
same,"Nuclear pyknosis and chromatin condensation, Hoechst dye 33258",[9],increased nuclear pylulosis ;aid chromatin condensation
IGF-1: IGF-1,Downregulation of CPTHR binding,[3],No downregulation
"C=C1/C(=C\C=C2/CCC[C@]3(C)[C@@H]([C@H](C)CCCC(C)(C)O)CC[C@@H]23)C[C@@H](O)C[C@@H]1O [1,25(OH)2D3]",Downregulation of CPTHR binding,[3]; 10 nM,No downregulation
hPTH(1-34): Amino-terminal human PTH fragment 1-34,cAMP response,[2],no detectable cAMP response
same,cAMP response,[5],absence of a detectable cAMP response
same,Displacement of the tracer,[1]; concentrations up to 1000 nM,did not displace the tracer significantly
same,Effect on cell death (trypan blue),[7]; concentrations as high as 1000 nM,inactive
same,Downregulation of CPTHR binding,[3]; 1 μM,No downregulation
"hPTH(39-84): C-terminal human PTH fragment 39-84, purchased from Peninsula (APLAPRDAGSQRPRKKEDNVLVESHEKSLGEADKADVNVLTKAKSQ; Parathyroid hormone; UniProt P01270 70-115, looked up, fragment)",pIC50,"[1]; C59 cells, 4 h at 15° C.",6.15 to 6.30
same,IC50 relative to hPTH(1-84) and hPTH(19-84),[1]; OC cells,roughly 15 fold
same,Increase in trypan blue-stained cells over basal,"[7]; 1000 nM, 16 hr",1.5 fold
same,Binding and activation of the PTH1R,[4],neither bind nor activate
same,Downregulation of CPTHR binding,[3]; 1 μM,No downregulation
CCCCCCCCCCCCCC(=O)O[C@@H]1[C@@H](C)[C@@]2(O)[C@@H](C=C(CO)C[C@]3(O)C(=O)C(C)=C[C@@H]23)[C@H]2C(C)(C)[C@]12OC(C)=O [TPA],"Radioligand binding, % of controls after drug removal",[3],63%
same,Reduction of specific binding,[3]; 10 nM,48±12%
